{"source": "patent US20050244491A1", "about": "“Fast disintegrating meloxicam tablet” (Boehringer Ingelheim International GmbH, priority 2001, published 2005)", "origin": "cited, not measured here", "details": "in acidic or neutral medium"}
{"compound": "Cc1cnc(NC(=O)C2=C(O)c3ccccc3S(=O)(=O)N2C)s1", "note": "[Meloxicam, 2H-1,2-benzothiazine-3-carboxamide, 4-hydroxy-2-methyl-N-(5-methyl-2-thiazolyl)-1,1-dioxide]", "values": [{"measurement": "solubility", "value": "low"}]}
